According to paper PMC9532755, “Impact of lactisole on the time-intensity profile of selected sweeteners in dependence of the binding site” (Food Chemistry: X, 2022):

Tested on: perceived sweet intensity (panelists)
Test: Sensory time-intensity (TI) measurement of sweetness by a trained panel
Type: in vivo, human
Details: for AUC of time-intensity curve / lingering (intensity at 90 sec) / onset (time-point of first maximum intensity) / max. int. (maximum sweet intensity): lactisole alone, mean ± SEM; for AUC of time-intensity curve: 180 sec evaluation; for max. int. (maximum sweet intensity): unstructured scale 0-100
Text: All panelists gave their written informed consent for participating in the panel and had to complete a sensory training. […] On a last training day, the evaluation on unstructured scales and the time-dependent evaluation on the computer were trained. All panelists reported to be in good general health condition, and not being under medication or pregnant. At least one hour before every training or tasting, panelists were instructed not to smoke and not to consume intense tasting food or beverage (e.g. coffee, chili, garlic, chewing gum) and to avoid in general strong hunger or fullness as well as strong odors or perfume on test days.
Every test solution was assessed randomly at two different test days with at least 8 panelists participating per replicate. The panelists were free to choose to participate at the different test days. A maximum of five test compounds were assessed in one session. All samples were coded with three-digit random code and presented to the panelists in randomized order. On each test day, panelists were presented five sweet solutions with 0, 25, 50, 100 and 200 g/L sucrose as a scale training for the ratings from “not at all” to “very intensive” sweetness. […] The three minutes of evaluation were chosen to capture as much of the lingering as possible without wearing out the panelists during the evaluation. A total of 350 measuring time points was recorded within the pre-set time frame, especially to see differences in the first seconds of evaluation, which are important for the onset. The panelists were asked to take the sample (20 mL) into their mouth, while starting the timer and simultaneously the evaluation of sweet intensity over the time, and to spit out the sample after ten seconds while continuing the evaluation of the sweetness intensity until the end of the three minutes.
For comparison of the time-dependent properties, the following descriptors were used: the maximum intensity at the first 30 sec of evaluation as “max. intensity”, the time-point of the first maximum intensity as “onset” in sec, […], and the area under the curve from the time-intensity plots as “AUC” as a marker for the overall intensity and duration.
All sensory experiments were conducted at the Christian Doppler Laboratory for Taste Research at the Institute for Physiological Chemistry, University of Vienna, Austria, at room temperature (21 – 23 °C). • Calcium mobilization assay
The statistical analysis and graphical representation were performed with GraphPad Prism 9.0 for sensory results and with SigmaPlot 14.0 for cell experiments. To evaluate the sensory dose–response effects of ascending sweetener concentration w/o lactisole, an asymmetrical five-parameter curve (Richard́s five-parameter dose–response curve) was fitted. The data are presented as means ± SEM from at least 16 single evaluations. Statistical significance between the different test compounds and concentration-dependent effects was assessed by two-way ANOVAs with Tukey post hoc test using Graph Pad Prism. The normal distribution of the data sets was checked by evaluation of the kurtosis (between −7 to + 7) and the skewness (between −3 to + 3). Equal variance was tested using Levenés test. In case the assumptions of a normal distribution and equal variance were not met, the non-parametric ANOVA on ranks (Kruskal-Wallis Test) with Dunn's post-hoc test without the calculation of interaction was applied. A Pearson product moment correlation was conducted to investigate relationships between sensory results and cell responses of the tested sweeteners.

SMILES: COc1ccc(OC(C)C(=O)O)cc1 (stereo not drawn) [lactisole, sodium 2-(4-methoxyphenoxy) propanoate]
- time after which a sweet perception (sweet aftertaste) was reported (lactisole 0.46 mM and 0.92 mM, sip-and-spit, spit out after ten seconds): around 30 sec
- AUC of time-intensity curve (0.46 mM): 4285 ± 926
- lingering (intensity at 90 sec) (0.46 mM): 16.96 ± 3.9
- onset (time-point of first maximum intensity) (0.46 mM): 106.0 ± 19.8 s
- max. int. (maximum sweet intensity) (0.46 mM): 23.3 ± 4.0
- AUC of time-intensity curve (0.92 mM): 5990 ± 1122
- lingering (intensity at 90 sec) (0.92 mM): 21.12 ± 3.8
- onset (time-point of first maximum intensity) (0.92 mM): 144.9 ± 21.9 s
- max. int. (maximum sweet intensity) (0.92 mM): 29.8 ± 4.2
